According to patent EP1131297B1, “CERTAIN SUBSTITUTED CAPROLACTAMS, PHARMACEUTICAL COMPOSITIONS CONTAINING THEM AND THEIR USE IN TREATING TUMORS” (Novartis AG, priority 1998, dated 2000):
≈ marks a conversion by molar mass, not a printed value.

Key:
[1] = system: MDA-MB-435 tumor xenografts; test: Human tumor xenograft growth inhibition in athymic nude mouse model; assay type: in vivo, athymic (nu/nu) mice; settings: 3X/week for 3 weeks
Procedure: The histologic tumor type employed was MDA-MB-435 breast carcinoma.
Positive controls are carried out with doxorubicin administered 3 times per week i.v.
Anti-tumor activity was expressed as %T/C (Δ MTV of treated group ö Δ MTV of control group X100).

[2] = system: MDA-MB-435 breast carcinoma; test: Anchorage Dependent Growth Monolayer Assay (ADGMA), MTS readout; assay type: cell-based; settings: Homo sapiens, MDA-MB-435, 72 h, average ± S.D., 3-day exposure, A490
Excerpt: As indicated above, all of the compounds of formula I, and their corresponding pharmaceutically acceptable acid addition salts, are anti-tumor agents and are, therefore, useful in inhibiting the growth of various lymphomas, sarcomas, carcinomas, myelomas, and leukemia cell lines. […] This assay was adapted from the 60 cell line assay used by the National Cancer Institute (NCI) with the following modifications: 1) a single cell line representative for the important tumor type, viz., MDA-MB-435 breast carcinoma was utilized; 2) a tetrazolium derivative, viz., MTS, was utilized to determine cell density.
The ADGMA compares the number of viable cells following a 3-day exposure to a test compound relative to a number of cells present at the time the test compound was added. […] The absorbance at 490 nm (A490) of the formazan derivative is proportional to the number of viable cells. The IC50 for a test compound is the concentration of compound required to reduce the final cell number to 50% of the final control cell number. If cell proliferation is inhibited, the assay further defines compounds as cytostatic (cell number after 3-day compound incubation >cell number at time of compound addition) or cytotoxic (cell number after 3-day compound incubation <cell number at time of compound addition).
The MDA-MB-435 breast carcinoma line was obtained from the American Type Culture Collection (ATCC) and used between passages 4-20 following thawing. MDA-MB-435 breast carcinoma was maintained and plated in DME/F12 medium containing 10% fetal bovine serum, 15 mM HEPES (pH=7.4), penicillin 100 units/mL, and streptomycin 100 µg/mL.
Cell lines are trypsinized and counted using a Coulter counter to determine plating densities. Cells are then plated in their respective maintenance media (100 µL/well) in 96 well plates at the following densities: MDA-MB-435, 3,000 cells/well. The number of cells plates as determined in preliminary experiments, results in cell densities of 75-90% of confluency by 4 days after plating. Initial cell densities, assayed one day after plating, are roughly 0.15-0.20 absorbance units greater than the media blank. Ninety-six well plates are seeded on day 0 and the test compounds are added on day 1. A control plate is created for each cell line that receives media only in row A and cells in row B. One day following plating, test compounds are added (in a final volume of 100 µL) to the test plates. Control plates receive 10 µL MTS mixture (prepared fresh on day of addition to cell plates at a ratio of 10 µL of a 0.92 mg/mL solution of PMS to a 190 µL of a 2 mg/mL solution of MTS) and 100 µL media. A490 of control plates is read 4h after MTS addition to determine initial cell density values for each cell line. Three days after addition of test compound, 10 µL/well of MTS mixture is added to the test plates and A490 is read 4h later. A490 values for wells containing cells are corrected for media absorbance, then normalized to initial density readings to determine percent net growth. IC50 values are determined from graphs of percent net growth as a function of compound concentration. Percent net growth is calculated as (Cell + Drug A490 - Initial A490/Cell + Drug Vehicle A490 - Initial A490).

physchem = settings: water
[3] = Mus musculus, MDA-MB-435, iv, 504 h, 10 µmol/kg i.v., * = statistically significant (p=<0.05), read-out: %T/C
[4] = Mus musculus, MDA-MB-435, iv, 504 h, 33 µmol/kg i.v., * = statistically significant (p=<0.05), read-out: %T/C

SMILES: CO[C@@H](C(=O)N[C@H]1CC[C@@H](OC(=O)C2CCCC2)CNC1=O)[C@H](O)[C@@H](O)[C@H](O)/C=C/C(C)(C)C [Ex. 2, (2R, 3R, 4S, 5R, 6E)-3,4,5-trihydroxy-2-methoxy-8,8-dimethyl-N-[(3S, 6R)-hexahydro-2-oxo-6-(cyclopentylcarbonyl)oxy-2H-azepin-3-yl]non-6-enamide]
- solubility (Water solubility): 18000 µg/mL (≈ 37.1 mM)
- Dead/Total ([1]; 10 µmol/kg i.v.): 0/8
- Δ MTV ([1]; 10 µmol/kg i.v.): 94 mm^3
- Dead/Total ([1]; 33 µmol/kg i.v.): 0/8
- Δ MTV ([1]; 33 µmol/kg i.v.): 19 mm^3
- response vs control in vivo at 10 µmol/kg [1, 3]: 67%
- response vs control in vivo at 33 µmol/kg [1, 4]: 13%
- IC50 [2]: 115 ± 40 nM

SMILES: CO[C@@H](C(=O)N[C@H]1CC[C@@H](OC(=O)CCc2ccccc2)CNC1=O)[C@H](O)[C@@H](O)[C@H](O)/C=C/C(C)(C)C [Ex. 4, (2R, 3R, 4S, 5R, 6E)-3,4,5-trihydroxy-2-methoxy-8,8-dimethyl-N-[(3S, 6R)-hexahydro-2-oxo-6-(1-oxo-3-phenylpropoxy)-2H-azepin-3-yl]non-6-enamide]
- solubility (physchem): 800 µg/mL (≈ 1.54 mM)
- Dead/Total ([1]; 10 µmol/kg i.v.): 0/8
- Δ MTV ([1]; 10 µmol/kg i.v.): 93 mm^3
- Dead/Total ([1]; 33 µmol/kg i.v.): 0/8
- Δ MTV ([1]; 33 µmol/kg i.v.): 21 mm^3
- Dead/Total ([1]; 100 µmol/kg i.v.): 0/8
- Δ MTV ([1]; 100 µmol/kg i.v.): -23 mm^3
- response vs control in vivo at 10 µmol/kg [1, 3]: 53%
- response vs control in vivo at 33 µmol/kg [1, 4]: 12%
- response vs control in vivo at 100 µmol/kg ([1]; Mus musculus, MDA-MB-435, iv, 504 h, 100 µmol/kg i.v., * = statistically significant (p=<0.05), read-out: %T/C): -13%
- IC50 [2]: 10 ± 10 nM
